Source: patent EP4772508A1, “MACROCYCLIC COMPOUND AND USE THEREOF” (Jiangsu Hengrui Pharmaceuticals Co., Ltd., priority 2023, dated 2025)
Where two headings read alike, the source gives them in different places. Marks after values point to notes of the source that are not given here.

Tests used:
[1] = Metal transfer stability test in the presence of zinc ions; type: physicochemical; conditions: equal volumes 2.5 mM contrast agent and 2.5 mM ZnCl2, phosphate buffer, 37°C, 0.5 T
Protocol: Test example 4: Metal transfer stability test of compounds in the presence of zinc ions • 1 . Experimental protocol • 2. […] Experiment instruments: VTMR20-010V-I Nuclear Magnetic Resonance Cross-Linking Density Imaging Analyser • 4. Experimental method
A 2.5 mM solution of contrast agent solutions and a 2.5 mM solution of zinc chloride were respectively prepared in phosphate buffer (0.026 mol/L KH2PO4 and 0.041 mol/L Na2HPO4). An equal volume of a 2.5 mM ZnCl2 solution was added to the a 2.5 mM gadolinium contrast agent solution, and the mixture was mixed by shaking. This moment of complete mixing was designated as time zero (t = 0). Immediately thereafter, a 0.5 mL aliquot was withdrawn and subjected to measurement of the longitudinal relaxation time, T1(0), at 37°C and a magnetic field strength of 0.5 T. The mixed solution was then incubated at 37°C. 0.5 mL of the solution was taken at time points of 5 min, 180 min, 1440 min and 5760 min, respectively, to determine T1(t) at different time points. The ratio of the relaxivity at different time points to the initial relaxivity at time 0, namely R1(t)/R1(0), was calculated.

[2] = Relaxivity of the compound in water; type: physicochemical; conditions: deionized water
Protocol: Test example 1: Relaxivity of the compound in water
Niumag (Suzhou) Nuclear Magnetic Resonance Contrast Agent Relaxivity Analyser with a 0.5 T magnetic field
Bruker Small Animal Magnetic Resonance Imaging System (BioSpec 70/20 USR) with a 7 T magnetic field
1 mL of the test sample was placed in a 1.5 mL EP (eppendorf) tube, and the longitudinal relaxation time T1 and transverse relaxation time T2 under different magnetic field conditions were measured separately using the Niumag (Suzhou) Nuclear Magnetic Resonance Contrast Agent Relaxivity Analyser with a 0.5 T magnetic field. The test sample was loaded into a 0.2 mL sample tube until full, and the longitudinal relaxation time T1 and transverse relaxation time T2 under different magnetic field conditions were measured separately using the Bruker Small Animal Magnetic Resonance Imaging System (BioSpec 70/20 USR) with a 7 T magnetic field.
(§1) Based on the relaxation times T1 and T2 of samples at different concentrations, the relaxivities r1 and r2 were calculated respectively. The relaxivity was calculated according to the following equation: r = (1)/(ΔT)/C, [formula] r: relaxivity; T: relaxation time (s); C: contrast agent concentration (mM).

[3] = tested on: canine plasma proteins; conditions: dog, 1000 µM
Protocol: After the preparation of plasma samples, 0.5 mL of plasma samples were transferred into ultracentrifugation tubes, with 3 replicates per concentration. After incubation in a CO2 incubator at 37°C for 0.5 h, the samples were subjected to ultracentrifugation at 627,000 g for 3 hours at 37°C. After centrifugation, 100 µL of samples were taken from the central layer of the ultracentrifugation tubes and mixed with 100 µL of blank plasma. The samples were stored at -70°C for subsequent determination.
The plasma protein binding rates of analytes at different concentration levels were calculated using the following formulas: [formula] Binding rate% = 100%−Free rate%. [formula]

[4] = Relaxivity of compounds in human plasma; type: physicochemical; conditions: human plasma containing sodium heparin, 0.5 T
Protocol: as §1

[5] = hydrochloric acid pH 1.2, 37°C, 8 × 10^-6 M, 0 h
[6] = hydrochloric acid, 24 h, 8 µM, pH 1.2
[7] = hydrochloric acid, 48 h, 8 µM, pH 1.2
[8] = hydrochloric acid, 96 h, 8 µM, pH 1.2

Substance: Gadodiamide
- R1(t)/R1(0) ([1]; 0 min): 1
- R1(t)/R1(0) ([1]; 5 min): 1.07
- R1(t)/R1(0) ([1]; 180 min): 0.59
- R1(t)/R1(0) ([1]; 1440 min): 0.59
- R1(t)/R1(0) ([1]; 5760 min): 0.38

Substance: Gadopiclenol [RC1]
- Relaxivity r1 ([2]; 0.5 T): 11.7 mM⁻¹ s⁻¹
- Relaxivity r1 ([2]; 7 T): 6.3 mM⁻¹ s⁻¹
- Average% (binding rate) [3]: 0* %
- Gd^3+ Dissociation rate (%) [5]: BLQ
- Gd^3+ Dissociation rate (%) [6]: 24.7%
- Gd^3+ Dissociation rate (%) [7]: 35.6%
- Gd^3+ Dissociation rate (%) [8]: 37.8%

Substance: Gadobutrol
- Relaxivity r1 ([2]; 0.5 T): 4.4 mM⁻¹ s⁻¹
- Relaxivity r1 ([2]; 7 T): 3.5 mM⁻¹ s⁻¹
- Relaxivity r1 [4]: 7.5 mM⁻¹ s⁻¹
- R1(t)/R1(0) ([1]; 0 min): 1
- R1(t)/R1(0) ([1]; 5 min): 0.93
- R1(t)/R1(0) ([1]; 180 min): 0.82
- R1(t)/R1(0) ([1]; 1440 min): 0.96
- R1(t)/R1(0) ([1]; 5760 min): 0.90
- Gd^3+ Dissociation rate (%) [5]: BLQ
- Gd^3+ Dissociation rate (%) [6]: 73.5%
- Gd^3+ Dissociation rate (%) [7]: 70.1%
- Gd^3+ Dissociation rate (%) [8]: 64.6%
